Some test systems named below: CCRF-CEM; Malme-3M; HOP-62; MOLT-4; NCI-H226; MCF7; UO-31; PC-3; SW-620; A498; HT-29; SK-MEL-2; Hs-578T; SNB-75; COLO 205; HOP-92; RPMI-8226; NCI-H522; SK-MEL-28; OVCAR-5.
Assay in all cases: NCI tumour cell line growth inhibition, 48 h

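48-hour exposure; five concentrations; linearly interpolated endpoints. GI50 marks 50% less growth.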 Calls of active or inactive are those of the source. No stated cut-off is given here; in the data, active = GI50 up to about 1.1 µM and inactive = higher. Some results are limits rather than exact numbers.

For `CC1=NN(c2ccccc2)C(=O)C1/N=N/c1ccc(S(N)(=O)=O)cc1` (stereo not given), the GI50 with CCRF-CEM, with Malme-3M, in the assay with HOP-62, in the assay with MOLT-4, in the assay on NCI-H226 and in the assay with MCF7 was > 100 µM (inactive) throughout. Also, the GI50 with UO-31, with PC-3, with SW-620, with A498, in the assay on HT-29 and with SK-MEL-2 was > 100 µM (inactive) each time. The GI50 in the assay with Hs-578T, with SNB-75, in the assay with COLO 205, in the assay on HOP-92, in the assay with RPMI-8226 and with NCI-H522 was > 100 µM (inactive) each time. Also, the GI50 with SK-MEL-28 and with OVCAR-5 was > 100 µM (inactive) each time.
`CCCNC(=S)N/N=C1\C(=O)Nc2ccccc21`: the GI50 in the assay on CCRF-CEM, in the assay with Malme-3M, in the assay with HOP-62, in the assay on MOLT-4, in the assay on NCI-H226 and with MCF7 was > 100 µM (inactive) throughout. For the same molecule, the GI50 in the assay on UO-31, in the assay on PC-3, in the assay on SW-620, in the assay with A498, in the assay on HT-29 and in the assay with SK-MEL-2 was > 100 µM (inactive) throughout. Also, the GI50 in the assay on Hs-578T, in the assay on SNB-75, in the assay on COLO 205, in the assay on HOP-92, with RPMI-8226 and with NCI-H522 was > 100 µM (inactive) throughout. In addition, the GI50 in the assay with SK-MEL-28 and in the assay on OVCAR-5 was > 100 µM (inactive) throughout.
Regarding `O=C1c2ccccc2C(=O)c2c(NC(=O)C(Cl)CCl)cccc21` (stereo not given), the GI50 in the assay with CCRF-CEM was 0.163 µM (active); in the assay with Malme-3M, 18.7 µM (inactive); in the assay with HOP-62, 10.5 µM (inactive); in the assay on MOLT-4, < 0.0353 µM (active); with NCI-H226, 17.5 µM (inactive); in the assay on MCF7, 0.785 µM (active). The GI50 in the assay with UO-31 is 10.6 µM (inactive); in the assay with PC-3, 9.33 µM (inactive); with SW-620, 2.86 µM (inactive); with A498, 19.2 µM (inactive); in the assay on HT-29, 3.05 µM (inactive); in the assay with SK-MEL-2, 5.09 µM (inactive). Also, the GI50 with Hs-578T was 31.3 µM (inactive); in the assay on SNB-75 it was 10.5 µM (inactive); with COLO 205 it was 6.47 µM (inactive); with HOP-92, 3.97 µM (inactive); with RPMI-8226, 0.628 µM (active); with NCI-H522, 2.16 µM (inactive). In addition, the GI50 in the assay with SK-MEL-28 is 17.2 µM (inactive); with OVCAR-5 it was 15.6 µM (inactive).
For `c1ccc2c(c1)[C@@H]1O[C@@H]1[C@@]13O[C@@]21[C@H]1O[C@H]1c1ccccc13`, the GI50 in the assay on CCRF-CEM is 4.48 µM (inactive); in the assay with Malme-3M, 12.7 µM (inactive); in the assay on HOP-62, 15.5 µM (inactive); with MOLT-4 it was 10.6 µM (inactive); in the assay with NCI-H226 it was 15.3 µM (inactive); in the assay on MCF7, 10.1 µM (inactive). In addition, the GI50 is 33.4 µM (inactive) with UO-31; 13.1 µM (inactive) in the assay with PC-3; 12.8 µM (inactive) in the assay on SW-620; 15.7 µM (inactive) with A498; 20.2 µM (inactive) in the assay on HT-29; 14.7 µM (inactive) in the assay with SK-MEL-2. For the same molecule, the GI50 in the assay on Hs-578T was 13 µM (inactive); in the assay with SNB-75 it was 12.9 µM (inactive); with COLO 205 it was 15.7 µM (inactive); in the assay on HOP-92 it was 9.89 µM (inactive); in the assay with RPMI-8226, 9.16 µM (inactive); with NCI-H522, 10.8 µM (inactive). In addition, the GI50 is 16.9 µM (inactive) in the assay with SK-MEL-28 and 17.1 µM (inactive) in the assay on OVCAR-5.

The values above are taken from ChEMBL document CHEMBL1201862, “PubChem BioAssay data set” (2004).
